Calls of active or inactive are those of the source.
Legend:
[1] = molecular target: Dual specificity mitogen-activated protein kinase kinase 2 (Homo sapiens, UniProt P36507)
[2] = molecular target: T1, Discoidin domain-containing receptor 2 (Homo sapiens, UniProt Q16832)
T1 sequence (Q16832 whole entry): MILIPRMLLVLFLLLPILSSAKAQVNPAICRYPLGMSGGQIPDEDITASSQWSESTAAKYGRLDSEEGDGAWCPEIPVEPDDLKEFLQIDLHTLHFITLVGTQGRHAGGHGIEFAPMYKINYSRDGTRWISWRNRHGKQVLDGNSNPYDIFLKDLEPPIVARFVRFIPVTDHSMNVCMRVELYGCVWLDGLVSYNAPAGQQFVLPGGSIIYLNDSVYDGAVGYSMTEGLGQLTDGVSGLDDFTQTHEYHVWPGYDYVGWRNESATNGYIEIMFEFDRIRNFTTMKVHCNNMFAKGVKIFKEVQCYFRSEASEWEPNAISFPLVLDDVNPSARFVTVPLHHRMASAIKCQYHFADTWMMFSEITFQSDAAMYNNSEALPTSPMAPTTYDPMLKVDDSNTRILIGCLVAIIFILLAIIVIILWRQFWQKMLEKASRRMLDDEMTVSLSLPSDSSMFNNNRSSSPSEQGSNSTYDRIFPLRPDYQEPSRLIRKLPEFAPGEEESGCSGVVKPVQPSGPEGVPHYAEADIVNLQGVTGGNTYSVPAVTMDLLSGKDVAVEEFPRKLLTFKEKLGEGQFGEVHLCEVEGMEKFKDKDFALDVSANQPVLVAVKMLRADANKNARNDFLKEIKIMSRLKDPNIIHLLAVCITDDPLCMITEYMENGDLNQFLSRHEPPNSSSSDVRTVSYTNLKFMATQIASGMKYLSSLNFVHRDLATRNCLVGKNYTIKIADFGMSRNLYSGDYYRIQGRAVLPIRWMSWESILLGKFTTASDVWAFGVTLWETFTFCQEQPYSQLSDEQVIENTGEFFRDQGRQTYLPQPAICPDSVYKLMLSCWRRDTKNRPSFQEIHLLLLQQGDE

[3] = molecular target: T2, Dynamin-like GTPase OPA1, mitochondrial (Homo sapiens, UniProt O60313)
T2 sequence (O60313 whole entry): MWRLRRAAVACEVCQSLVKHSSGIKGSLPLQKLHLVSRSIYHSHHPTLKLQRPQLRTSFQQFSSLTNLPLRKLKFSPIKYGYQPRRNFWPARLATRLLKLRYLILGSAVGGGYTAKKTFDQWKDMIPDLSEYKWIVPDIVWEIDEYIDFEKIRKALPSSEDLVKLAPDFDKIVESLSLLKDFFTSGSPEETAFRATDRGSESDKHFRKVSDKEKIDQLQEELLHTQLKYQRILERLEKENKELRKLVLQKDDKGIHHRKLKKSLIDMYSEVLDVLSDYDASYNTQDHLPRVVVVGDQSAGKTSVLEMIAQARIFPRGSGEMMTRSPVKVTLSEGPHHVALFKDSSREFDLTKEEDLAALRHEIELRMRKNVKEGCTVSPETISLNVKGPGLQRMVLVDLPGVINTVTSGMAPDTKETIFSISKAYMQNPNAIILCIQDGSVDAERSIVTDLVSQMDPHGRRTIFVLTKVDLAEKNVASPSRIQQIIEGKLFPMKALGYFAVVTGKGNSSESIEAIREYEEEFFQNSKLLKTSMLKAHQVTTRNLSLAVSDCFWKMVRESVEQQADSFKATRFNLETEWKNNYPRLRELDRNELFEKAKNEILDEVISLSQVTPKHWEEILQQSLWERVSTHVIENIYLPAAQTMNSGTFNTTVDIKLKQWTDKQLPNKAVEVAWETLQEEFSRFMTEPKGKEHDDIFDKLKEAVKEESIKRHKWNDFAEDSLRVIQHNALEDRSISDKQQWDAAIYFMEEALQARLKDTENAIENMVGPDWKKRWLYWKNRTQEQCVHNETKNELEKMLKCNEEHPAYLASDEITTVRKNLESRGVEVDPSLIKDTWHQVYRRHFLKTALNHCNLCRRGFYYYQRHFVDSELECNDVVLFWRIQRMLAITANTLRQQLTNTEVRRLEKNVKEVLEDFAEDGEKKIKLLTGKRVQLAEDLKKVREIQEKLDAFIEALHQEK

[4] = molecular target: Elongation factor Tu, mitochondrial (Homo sapiens, UniProt P49411)
[5] = molecular target: T3, Very long-chain specific acyl-CoA dehydrogenase, mitochondrial (Homo sapiens, UniProt P49748)
T3 sequence (P49748 whole entry): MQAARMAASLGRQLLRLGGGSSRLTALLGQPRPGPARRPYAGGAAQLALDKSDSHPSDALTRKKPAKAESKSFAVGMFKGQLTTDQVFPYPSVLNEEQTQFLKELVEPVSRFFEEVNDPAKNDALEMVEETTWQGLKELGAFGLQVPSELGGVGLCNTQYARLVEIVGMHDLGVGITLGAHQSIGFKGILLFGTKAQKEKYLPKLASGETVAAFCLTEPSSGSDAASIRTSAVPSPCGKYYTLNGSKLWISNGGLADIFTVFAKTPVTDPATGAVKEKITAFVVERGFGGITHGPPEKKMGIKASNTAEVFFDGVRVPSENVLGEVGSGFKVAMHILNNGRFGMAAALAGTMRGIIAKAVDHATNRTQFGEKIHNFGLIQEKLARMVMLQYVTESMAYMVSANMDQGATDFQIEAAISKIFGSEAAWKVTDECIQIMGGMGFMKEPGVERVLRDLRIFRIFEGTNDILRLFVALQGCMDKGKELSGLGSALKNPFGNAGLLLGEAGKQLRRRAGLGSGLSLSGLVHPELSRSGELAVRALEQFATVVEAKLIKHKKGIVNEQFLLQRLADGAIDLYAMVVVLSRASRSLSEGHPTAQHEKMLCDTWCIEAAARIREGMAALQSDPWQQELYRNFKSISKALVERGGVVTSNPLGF

[6] = molecular target: Cyclin-dependent kinase 7 (Homo sapiens, UniProt P50613)
Cyclin-dependent kinase 7, sequence (P50613 whole entry): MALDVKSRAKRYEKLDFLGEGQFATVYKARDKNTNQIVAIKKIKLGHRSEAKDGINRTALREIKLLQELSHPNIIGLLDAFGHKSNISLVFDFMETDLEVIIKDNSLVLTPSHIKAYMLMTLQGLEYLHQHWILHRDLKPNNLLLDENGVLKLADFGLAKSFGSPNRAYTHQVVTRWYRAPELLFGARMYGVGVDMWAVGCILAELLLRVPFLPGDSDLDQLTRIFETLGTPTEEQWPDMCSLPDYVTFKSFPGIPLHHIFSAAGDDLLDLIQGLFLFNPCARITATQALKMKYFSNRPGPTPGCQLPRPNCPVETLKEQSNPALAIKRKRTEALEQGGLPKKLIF

[7] = molecular target: T4, Electron transfer flavoprotein subunit beta (Homo sapiens, UniProt P38117)
T4 sequence (P38117 whole entry): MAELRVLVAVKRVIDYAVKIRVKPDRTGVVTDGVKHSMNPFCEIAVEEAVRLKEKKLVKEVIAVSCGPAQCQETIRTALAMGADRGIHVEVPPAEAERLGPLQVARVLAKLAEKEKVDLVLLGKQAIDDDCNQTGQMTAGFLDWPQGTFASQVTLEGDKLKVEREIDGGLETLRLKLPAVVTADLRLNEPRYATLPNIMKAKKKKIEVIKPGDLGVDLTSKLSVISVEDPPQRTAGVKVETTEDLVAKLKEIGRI
Note: in the data inactive means no Kd found up to 30 µM.

Dual specificity mitogen-activated protein kinase kinase 2, sequence (P36507 whole entry, the tested form may be a part): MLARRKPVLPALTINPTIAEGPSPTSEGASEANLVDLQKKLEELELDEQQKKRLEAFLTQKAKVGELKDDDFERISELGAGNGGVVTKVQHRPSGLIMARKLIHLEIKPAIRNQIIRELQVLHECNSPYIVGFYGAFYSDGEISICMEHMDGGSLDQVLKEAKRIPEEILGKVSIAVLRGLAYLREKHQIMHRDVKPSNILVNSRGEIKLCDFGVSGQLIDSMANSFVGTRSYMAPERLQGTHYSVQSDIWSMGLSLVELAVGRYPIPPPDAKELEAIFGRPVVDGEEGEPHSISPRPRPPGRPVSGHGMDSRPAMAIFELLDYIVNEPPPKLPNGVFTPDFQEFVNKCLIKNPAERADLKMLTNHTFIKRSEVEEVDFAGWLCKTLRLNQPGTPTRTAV

SMILES | Kd [1] | Kd [2] | Kd [3] | Kd [4] | Kd [5] | Kd [6] | Kd [7]
O=C(Nc1ccc(OC(F)(F)F)cc1)c1sccc1NCc1ccnc2ccccc12 [OSI-930] | > 30 µM (inactive) | > 30 µM (inactive) | > 30 µM (inactive) | > 30 µM (inactive) | > 30 µM (inactive) | > 30 µM (inactive) | –
COc1cccc(Nc2ncnn3ccc(CN4CC[C@@H](N)[C@H](O)C4)c23)c1 [BMS-690514] | > 30 µM (inactive) | > 30 µM (inactive) | > 30 µM (inactive) | > 30 µM (inactive) | > 30 µM (inactive) | > 30 µM (inactive) | –
CN(c1ncccc1CNc1nc(Nc2ccc3c(c2)CC(=O)N3)ncc1C(F)(F)F)S(C)(=O)=O [PF-00562271] | – | > 30 µM (inactive) | > 30 µM (inactive) | > 30 µM (inactive) | > 30 µM (inactive) | – | > 30 µM (inactive)
C=CCn1c(=O)c2cnc(Nc3ccc(N4CCN(C)CC4)cc3)nc2n1-c1cccc(C(C)(C)O)n1 [ADAVOSERTIB] | – | > 30 µM (inactive) | > 30 µM (inactive) | > 30 µM (inactive) | > 30 µM (inactive) | – | > 30 µM (inactive)
COc1cc2c(Oc3ccc4[nH]c(C)cc4c3F)ncnc2cc1OCCCN1CCCC1 [CEDIRANIB] | – | – | > 30 µM (inactive) | > 30 µM (inactive) | > 30 µM (inactive) | – | > 30 µM (inactive)
Cc1cc(-c2cc(OC(=O)c3ccccc3)ccc2Cl)cc2nnc(Nc3ccc(OCCN4CCCC4)cc3)nc12 [TG100-801] | > 30 µM (inactive) | > 30 µM (inactive) | > 30 µM (inactive) | > 30 µM (inactive) | > 30 µM (inactive) | > 30 µM (inactive) | –
O=C(NOC[C@H](O)CO)c1ccc(F)c(F)c1Nc1ccc(I)cc1F [MIRDAMETINIB] | – | > 30 µM (inactive) | > 30 µM (inactive) | > 30 µM (inactive) | > 30 µM (inactive) | > 30 µM (inactive) | > 30 µM (inactive)
N#CCNC(=O)c1ccc(-c2ccnc(Nc3ccc(N4CCOCC4)cc3)n2)cc1 [MOMELOTINIB] | – | > 30 µM (inactive) | – | > 30 µM (inactive) | > 30 µM (inactive) | > 30 µM (inactive) | > 30 µM (inactive)
CC(C)(O)CC(=O)NCCn1ccc2ncnc(Nc3ccc(Oc4cccc(C(F)(F)F)c4)c(Cl)c3)c21 [TAK-285] | – | > 30 µM (inactive) | > 30 µM (inactive) | > 30 µM (inactive) | > 30 µM (inactive) | > 30 µM (inactive) | –
CC1(C)CNc2cc(NC(=O)c3cccnc3NCc3ccncc3)ccc21 [MOTESANIB] | – | – | > 30 µM (inactive) | > 30 µM (inactive) | > 30 µM (inactive) | – | > 30 µM (inactive)
Cc1cc(C(=O)Nc2cc(Oc3ccc4nc(NC(=O)C5CC5)cn4n3)ccc2C)n(C)n1 [TAK-593] | > 30 µM (inactive) | 19.3 µM (active) | > 30 µM (inactive) | > 30 µM (inactive) | > 30 µM (inactive) | > 30 µM (inactive) | –
C=CCN(/C=C1/C(=O)O[C@H](COC)[C@@]2(C)C1=C(O)C(=O)C1=C2[C@H](OC(C)=O)C[C@]2(C)C(=O)CC[C@@H]12)CC=C [SONOLISIB] | > 30 µM (inactive) | > 30 µM (inactive) | > 30 µM (inactive) | > 30 µM (inactive) | > 30 µM (inactive) | > 30 µM (inactive) | –
CNC(=O)c1ccc(Nc2ncc(C(F)(F)F)c(NCc3nccnc3N(C)S(C)(=O)=O)n2)cc1 [DEFACTINIB] | > 30 µM (inactive) | > 30 µM (inactive) | > 30 µM (inactive) | > 30 µM (inactive) | > 30 µM (inactive) | – | –
CN(C)C/C=C/C(=O)Nc1cc2c(Nc3ccc(F)c(Cl)c3)ncnc2cc1O[C@H]1CCOC1 [AFATINIB] | – | – | > 30 µM (inactive) | > 30 µM (inactive) | > 30 µM (inactive) | – | > 30 µM (inactive)
Cn1cnc2c(F)c(Nc3ccc(Br)cc3Cl)c(C(=O)NOCCO)cc21 [SELUMETINIB] | – | – | > 30 µM (inactive) | > 30 µM (inactive) | > 30 µM (inactive) | – | > 30 µM (inactive)
Cn1c(=O)n(-c2ccc(C(C)(C)C#N)cc2)c2c3cc(-c4cnc5ccccc5c4)ccc3ncc21 [DACTOLISIB] | – | – | > 30 µM (inactive) | > 30 µM (inactive) | > 30 µM (inactive) | – | > 30 µM (inactive)
COc1cc2c(N3CCN(C(=O)Nc4ccc(OC(C)C)cc4)CC3)ncnc2cc1OCCCN1CCCCC1 [TANDUTINIB] | – | – | > 30 µM (inactive) | > 30 µM (inactive) | > 30 µM (inactive) | – | > 30 µM (inactive)
O=S(=O)(c1cccc2cnccc12)N1CCCNCC1 [FASUDIL] | – | > 30 µM (inactive) | > 30 µM (inactive) | > 30 µM (inactive) | > 30 µM (inactive) | – | > 30 µM (inactive)
CCN(CCCOc1ccc2c(Nc3cc(CC(=O)Nc4cccc(F)c4)n[nH]3)ncnc2c1)CCOP(=O)(O)O [BARASERTIB] | – | > 30 µM (inactive) | > 30 µM (inactive) | > 30 µM (inactive) | > 30 µM (inactive) | – | > 30 µM (inactive)
CCN1CCN(Cc2ccc(Nc3ncc(F)c(-c4cc(F)c5nc(C)n(C(C)C)c5c4)n3)nc2)CC1 [ABEMACICLIB] | > 30 µM (inactive) | > 30 µM (inactive) | > 30 µM (inactive) | > 30 µM (inactive) | > 30 µM (inactive) | – | –
CC1(COc2ccc3c(c2)ncn3-c2ccc3cccc(N4CCC(N)CC4)c3n2)COC1 [CRENOLANIB] | > 30 µM (inactive) | > 30 µM (inactive) | > 30 µM (inactive) | > 30 µM (inactive) | > 30 µM (inactive) | – | 0.012 µM
C[C@@]1(C(=O)Nc2ccc(F)nc2)CCCN1c1nc(Nc2cc(C3CC3)n[nH]2)c2cccn2n1 [BMS-754807] | – | – | > 30 µM (inactive) | > 30 µM (inactive) | > 30 µM (inactive) | – | > 30 µM (inactive)

— ChEMBL document CHEMBL3991601, “The target landscape of clinical kinase drugs” (Science, 2017)
